Values of other authors, collected in patent publication US20210298296A1, “METHOD OF PREVENTING MICROBES IN DISPOSABLE PRODUCTS” (priority 2020, published 2021).

How the values were obtained:
Staphylococcus aureus = conditions: in vitro
[1] = tested on: S. aureus, Staphylococcus epidermidis, Propionibacterium acnes
[2] = tested on: influenza virus subtype H1N1
[3] = tested on: cells activated by monocytes; conditions: water-soluble components of Tea Tree Oil
[4] = tested on: nail fungus (onychomycosis); conditions: 117 patients; six months, twice-daily topical 1% clotrimazole or 100% Tea Tree Oil
[5] = 104 patients, 10% w/w Tea Tree Oil cream vs 1% tolnaftate vs placebo

## CC1=CCC(O)(C(C)C)CC1 (stereo not shown) [Terpinen-4-ol, 4-methyl-1-(1-methylethyl)-3-cyclohexen-1-ol]
Staphylococcus aureus
  activity against Staphylococcus aureus, Terpinen-4-ol compared with whole Tea Tree Oil: equally effective
[1]
  inhibitory effect on all three organisms: inhibitory
[2]
  antiviral activity against influenza virus subtype H1N1: principally attributed to Terpinen-4-ol
Leishmania major
  contribution to the antiprotozoal activity of Tea Tree Oil: contributed significantly to this activity
Trypanosoma brucei
  contribution to the antiprotozoal activity of Tea Tree Oil: contributed significantly to this activity
[3]
  inflammatory response: suppress the inflammatory response
Human melanoma cells
  growth of human melanoma cells: impair the growth of human melanoma cells

## CC1=CCC2CC1C2(C)C (stereo not drawn) [alpha-pinene]
[1]
  inhibitory effect on all three organisms: inhibitory

## CC1=CCC(C(C)(C)O)CC1 (stereo not drawn) [alpha-terpineol]
[1]
  inhibitory effect on all three organisms: inhibitory

## O=C(OOC(=O)c1ccccc1)c1ccccc1 [benzoyl peroxide, reference compound]
Acne vulgaris (P. acnes); 124 patients, 5% Tea Tree Oil gel vs 5% benzoyl peroxide lotion
  number of inflamed and non-inflamed lesions: significantly reduced the number of inflamed and non-inflamed lesions

## Clc1ccccc1C(c1ccccc1)(c1ccccc1)n1ccnc1 [clotrimazole]
[4]
  clinical resolution of the infection: clinically documented resolution of the infection
  fungus in cultures: decrease in fungus in cultures

## Cc1cccc(N(C)C(=S)Oc2ccc3ccccc3c2)c1 [tolnaftate]
Tinea pedis; [5]
  conversion to negative culture at the end of therapy: showed conversion to negative culture
  improvements in clinical symptoms: significant improvements in clinical symptoms
Tinea pedis; human, in vivo
  cure rate for tinea pedis: 80%

## Tea Tree Oil
Acne vulgaris (P. acnes); human, in vivo
  adverse side effects (skin scaling, dryness, irritation): fewer adverse side effects
